In patent US20050250826A1, “Compounds, compositions, processes of making, and methods of use related to inhibiting macrophage migration inhibitory factor” (priority 2004, published 2005) one finds anti-inflammatory activity, melting point and IC50 data, which are given here for five compounds.

One may read the melting point as the temperature, or range, at which the solid turns liquid. The term pIC50 denotes the IC50 on a negative log10 scale, so that one unit is a factor of ten.

For one data set, the system named is carageenin-induced edema. The following applies: rat paw; compared to parent compound unsubstituted in the para position of the phenyl ring; Curuzu et al. 1991; cited from earlier work.
The target of a further data set is T1, recombinant human MIF (Homo sapiens, UniProt P14174).
T1 construct: made in house; host or cells: E. coli
T1 sequence (P14174 2-115 limits assumed): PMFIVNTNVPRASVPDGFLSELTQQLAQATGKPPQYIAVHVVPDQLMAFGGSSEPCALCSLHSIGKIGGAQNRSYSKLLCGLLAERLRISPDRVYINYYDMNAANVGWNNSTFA
Nature of the data set: MIF dopachrome tautomerase assay. It counts as biochemical. The following applies: dose-dependent inhibition. From the text:
The compounds of Formula I or II are identified as MIF inhibitors because they inhibit MIF enzymatic activity in vitro. […] This reaction predicts therapeutic MIF inhibitors (see U.S. Pat. No. 6,420,188 and U.S. Pat. No. 6,599,938, the disclosures of which are incorporated herein by reference in their entirety). Inhibition of MIF tautomerase activity is predictive of inhibition of MIF biological activity.
A method for performing an assay for MIF dopachrome tautomerase activity begins with the preparation and oxidation of a DOPA-related substrate precursor, such as L-3,4-dihydroxyphenylalanine methyl ester. […] The absorbance is measured at about 475 nm (or 550 nm for substrate concentrations in excess […]). A test compound may be included in the assay solution such that the effect of the test compound on MIF tautomerase activity (i.e., as an inhibitor) may be measured by noting the change in kinetics of substrate tautomerization compared to control assays performed in the absence of the test inhibitor compound. […]
L-3,4-dihydroxyphenylalanine methyl ester (e.g., Sigma D-1507) is a dopachrome substrate precursor, and is prepared as a 4 mM solution in dd H2O Sodium periodate is prepared as an 8 mM solution in dd H2O. […] Inhibition of MIF tautomerase activity by the test compounds is determined by inhibition of the de-colorization of the assay mixture, often at the 20 sec time point. […]

Molecules are shown by their SMILES. pIC50: −log10 of the molar value.

`O=C(O)CC1CC(c2ccc(O)cc2)=NO1` (centres unmarked) [3-(4-hydroxyphenyl)-4,5-dihydro-5-isoxazolineacetic acid]: the anti-inflammatory activity result in the data set with carageenin-induced edema was “devoid of anti-inflammatory activity”. `COc1ccc(C2=NOC(CC(=O)O)C2)cc1` (centres unmarked) [3-(4-methoxyphenyl)-4,5-dihydro-5-isoxazolineacetic acid]: in the data set on carageenin-induced edema, the anti-inflammatory activity entry is “dramatically reduced”. Regarding `CCOC(=O)C(C)CC1CC(c2ccc(O)cc2)=NO1` (centres unmarked) [Compound 32], the melting point was in the range of 192 to 194 °C.

Turning to `O=C(CC1CC(c2ccc(O)cc2)=NO1)N1CCCC1` (centres unmarked) [Compound 68], the pIC50 on recombinant human MIF was roughly 5.00. Take `O=C(CC1CC(c2ccc(O)cc2)=NO1)N1CCOCC1` (centres unmarked) [Compound 69]: on recombinant human MIF, the pIC50 was roughly 5.00.
